Test systems include OVCAR-4 ovarian; MDA-MB-435; RXF 393 renal; UO-31 renal; SF-295 CNS; MOLT-4 leukemia; SK-OV-3 ovarian; A549 NSCLC; NCI/ADR-RES ovarian; SK-MEL-28 melanoma; OVCAR-8 ovarian; COLO 205 colon; NCI-H460 lung; UACC-257 melanoma; MALME-3M melanoma.
Holding throughout (experiment): growth of human tumour cells (NCI), 48 h

Molecules are shown by their SMILES.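 Five compound concentrations were applied to cells in 96-well plates for 48 hours; endpoints were derived by simple linear interpolation of the resulting dose-response curve. TGI is the concentration that stops growth completely.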

These results are taken from PubChem BioAssay (NCI).

On to `COc1ccc(N2C(=O)C3c4[nH]c5cc(Cl)ccc5c4C4CCC(C(C)(C)C)CC4C3C2=O)cc1` (stereo not drawn), for which the TGI in the assay on OVCAR-4 ovarian, in the assay with MDA-MB-435, in the assay on RXF 393 renal, in the assay on UO-31 renal, with SF-295 CNS and in the assay on MOLT-4 leukemia was more than 100 µM each time. For the same compound, the TGI with SK-OV-3 ovarian, in the assay with A549 NSCLC, in the assay with NCI/ADR-RES ovarian, in the assay on SK-MEL-28 melanoma, in the assay on OVCAR-8 ovarian and in the assay on COLO 205 colon was more than 100 µM each time. Moreover, the TGI with NCI-H460 lung and in the assay with UACC-257 melanoma was more than 100 µM each time.

With `COc1cc2c(cc1O)-c1c(OC)c(O)cc3c1C(C2)N(C)CC3` (stereo not drawn), the TGI in the assay with OVCAR-4 ovarian, with MDA-MB-435, with RXF 393 renal, with UO-31 renal, in the assay with SF-295 CNS and in the assay on MOLT-4 leukemia was more than 100 µM in each case. Besides, the TGI with SK-OV-3 ovarian, in the assay with A549 NSCLC, in the assay on NCI/ADR-RES ovarian, in the assay with OVCAR-8 ovarian, with COLO 205 colon and with NCI-H460 lung was more than 100 µM throughout. In the assay with UACC-257 melanoma, this compound registered a TGI of more than 100 µM.

In the case of `Cc1ccc(S(=O)(=O)c2ccsc2NC(=O)c2ccccc2)cc1`, the TGI in the assay with OVCAR-4 ovarian is 73.6 µM; in the assay with MDA-MB-435 it was more than 100 µM; with UO-31 renal, more than 100 µM; with SF-295 CNS it was more than 100 µM; in the assay with MOLT-4 leukemia, more than 100 µM; in the assay with SK-OV-3 ovarian, more than 100 µM. Also, the TGI in the assay on A549 NSCLC was more than 100 µM; in the assay with NCI/ADR-RES ovarian, more than 100 µM; in the assay on SK-MEL-28 melanoma, more than 100 µM; in the assay on OVCAR-8 ovarian it was 98.5 µM; in the assay on COLO 205 colon, more than 100 µM; in the assay on MALME-3M melanoma, more than 100 µM. Also, the TGI in the assay on NCI-H460 lung and in the assay on UACC-257 melanoma was more than 100 µM each time.

On to `O=C(/C=C/c1ccc(O)cc1)c1cc(O)cc(O)c1`, for which the TGI in the assay with OVCAR-4 ovarian amounted to 44.6 µM; in the assay with MDA-MB-435, 38.9 µM; with RXF 393 renal, 32 µM; with UO-31 renal it was 21.6 µM; in the assay on SF-295 CNS, 30.6 µM; in the assay with MOLT-4 leukemia, 45.3 µM. The TGI was 42.4 µM in the assay with SK-OV-3 ovarian; 30.6 µM in the assay on A549 NSCLC; more than 100 µM in the assay with NCI/ADR-RES ovarian; 42.7 µM in the assay with SK-MEL-28 melanoma; 27.6 µM in the assay with OVCAR-8 ovarian; 31.9 µM with COLO 205 colon. Further, the TGI was 47.3 µM in the assay on MALME-3M melanoma and 30.3 µM in the assay on UACC-257 melanoma.

For `Cc1cn(C2CC(N=[N+]=[N-])C(C(=O)O)O2)c(=O)[nH]c1=O` (stereo not drawn), the TGI in the assay with OVCAR-4 ovarian, in the assay with MDA-MB-435, with RXF 393 renal, with UO-31 renal, in the assay with MOLT-4 leukemia and in the assay on SK-OV-3 ovarian was more than 100 µM throughout. Further, the TGI with A549 NSCLC, with NCI/ADR-RES ovarian, in the assay with OVCAR-8 ovarian, in the assay on COLO 205 colon, in the assay with MALME-3M melanoma and in the assay with NCI-H460 lung was more than 100 µM in each case. In the assay with UACC-257 melanoma, this compound displayed a TGI of more than 100 µM.

Turning to `NS(=O)(=O)c1ccc(N=Nc2nc3[nH]cnc(=S)c3[nH]2)cc1`, the TGI with OVCAR-4 ovarian was more than 100 µM; with MDA-MB-435, more than 100 µM; in the assay with RXF 393 renal it was more than 22.1 µM; in the assay on UO-31 renal it was more than 43.8 µM; in the assay with SF-295 CNS it was more than 64.7 µM; with MOLT-4 leukemia it was 4.19 µM. Further, the TGI in the assay with A549 NSCLC is more than 89.6 µM; with NCI/ADR-RES ovarian it was 14.5 µM; in the assay on SK-MEL-28 melanoma it was more than 100 µM; with OVCAR-8 ovarian it was more than 100 µM; in the assay with COLO 205 colon it was 7.09 µM; in the assay on MALME-3M melanoma, 36 µM. Moreover, the TGI with NCI-H460 lung is 10.1 µM; with UACC-257 melanoma, more than 87.6 µM.

Take `COC(=O)c1cn(CCCCO)nn1`: the TGI in the assay on OVCAR-4 ovarian, with MDA-MB-435, in the assay on RXF 393 renal, in the assay with UO-31 renal, in the assay on SF-295 CNS and with MOLT-4 leukemia was more than 100 µM each time. The TGI in the assay with A549 NSCLC, in the assay on NCI/ADR-RES ovarian, with SK-MEL-28 melanoma, in the assay on OVCAR-8 ovarian, with COLO 205 colon and in the assay with MALME-3M melanoma was more than 100 µM throughout. Moreover, the TGI with NCI-H460 lung and in the assay on UACC-257 melanoma was more than 100 µM each time.

As to `COc1cc2c(cc1OC)CN1CCc3ccccc3CC1C2` (stereo not drawn), the TGI with OVCAR-4 ovarian was 98.2 µM; in the assay with MDA-MB-435, more than 100 µM; in the assay with UO-31 renal, more than 100 µM; with SF-295 CNS it was more than 100 µM; with MOLT-4 leukemia, more than 100 µM; in the assay with SK-OV-3 ovarian, more than 100 µM. Moreover, the TGI with A549 NSCLC, in the assay on NCI/ADR-RES ovarian, in the assay with SK-MEL-28 melanoma, with OVCAR-8 ovarian, with COLO 205 colon and in the assay on MALME-3M melanoma was more than 100 µM in each case. Besides, the TGI in the assay on NCI-H460 lung and in the assay with UACC-257 melanoma was more than 100 µM each time.

For the compound `CCN(CC)C(=O)N[C@@H](Cc1ccccc1)C(=O)NC`, the TGI in the assay with OVCAR-4 ovarian, with MDA-MB-435, in the assay on RXF 393 renal, in the assay on UO-31 renal, in the assay on SF-295 CNS and in the assay with MOLT-4 leukemia was more than 100 µM each time. Moreover, the TGI in the assay on SK-OV-3 ovarian, with A549 NSCLC, in the assay on NCI/ADR-RES ovarian, in the assay with SK-MEL-28 melanoma, in the assay on OVCAR-8 ovarian and with COLO 205 colon was more than 100 µM throughout. Moreover, the TGI in the assay on MALME-3M melanoma and with NCI-H460 lung was more than 100 µM each time.

As for `Cc1cn(CCCCOC(=O)NC(CCCNC(N)=O)C(=O)O)c(=O)[nH]c1=O` (stereo not drawn), the TGI in the assay on OVCAR-4 ovarian, with MDA-MB-435, with RXF 393 renal, in the assay with UO-31 renal, in the assay with SF-295 CNS and with MOLT-4 leukemia was more than 100 µM in each case. Further, the TGI in the assay on SK-OV-3 ovarian, with A549 NSCLC, with NCI/ADR-RES ovarian, with SK-MEL-28 melanoma, in the assay on OVCAR-8 ovarian and in the assay with COLO 205 colon was more than 100 µM in each case. Moreover, the TGI in the assay with NCI-H460 lung and in the assay on UACC-257 melanoma was more than 100 µM each time.
